Results on 68 compounds are retold here after ChEMBL document CHEMBL5604063, “ASAP - DENV-2 NS2B-NS3 protease fluorescence dose response” (2024).

Each structure is given as a SMILES string. “And” between values parts separate entries of the source, which are not always exact repeats. Equal values may be shown once.

The target of assay [1] is T1, Genome polyprotein (dengue virus type 2, UniProt P29990). Format: functional, Thailand/16681/1984.
Assay [2] concerns the target T1, Genome polyprotein. Format: functional, Thailand/16681/1984. The source holds these as a separate data set.

Usually IC50 stands for the concentration that inhibits the measured activity by half. The low end stands for inhibition by little substance, the high end for a need for much substance.

T1 sequence (P29990 1346-1475 limits assumed): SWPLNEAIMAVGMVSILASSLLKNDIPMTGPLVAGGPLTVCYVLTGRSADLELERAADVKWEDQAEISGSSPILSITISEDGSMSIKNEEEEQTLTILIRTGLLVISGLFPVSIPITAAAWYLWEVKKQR
T1 sequence (P29990 1476-2093 limits assumed): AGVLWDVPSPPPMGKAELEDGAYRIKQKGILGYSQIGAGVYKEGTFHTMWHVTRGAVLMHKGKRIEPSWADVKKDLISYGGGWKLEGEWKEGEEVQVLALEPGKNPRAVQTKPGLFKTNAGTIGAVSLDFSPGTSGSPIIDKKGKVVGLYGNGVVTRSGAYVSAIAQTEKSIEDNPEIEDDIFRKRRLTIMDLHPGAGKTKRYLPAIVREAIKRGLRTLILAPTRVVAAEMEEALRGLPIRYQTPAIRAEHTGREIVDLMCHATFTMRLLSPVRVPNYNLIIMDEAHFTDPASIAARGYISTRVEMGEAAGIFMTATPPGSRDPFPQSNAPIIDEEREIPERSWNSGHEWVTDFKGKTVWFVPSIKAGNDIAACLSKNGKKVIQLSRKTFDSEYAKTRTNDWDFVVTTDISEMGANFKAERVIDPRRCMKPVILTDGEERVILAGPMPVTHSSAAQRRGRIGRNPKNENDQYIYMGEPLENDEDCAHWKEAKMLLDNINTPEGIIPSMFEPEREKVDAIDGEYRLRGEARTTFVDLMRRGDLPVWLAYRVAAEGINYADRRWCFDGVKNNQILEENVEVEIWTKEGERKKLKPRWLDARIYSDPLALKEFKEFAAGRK

In the case of `O=C(NCC(F)F)[C@H](Nc1ccc2c(c1)CNC2)c1cc(Br)cc2[nH]ccc12`, the IC50 in assay [1] was > 100 µM; in assay [2], > 99.5 µM.
For the compound `O=C(Nc1cc(Cl)cc(C(=O)NC[C@H]2CCNC3(CC3)C2)c1)OCc1ccccc1`, the IC50 in assay [1] is > 100 µM; in assay [2], > 99.5 µM.
On the same counts, the results for `O=C1Cc2c(cccc2C(=O)NC2(c3ccc(O)nc3)CC2)N1` are > 100 µM and > 99.5 µM.
On the same counts, the results for `O=C(Nc1ccc2c(c1)CNC2)c1cc(Br)cc2ccccc12` are > 100 µM and > 99.5 µM.
Take `Nc1noc2cccc(C(=O)Nc3ccc4c(c3)CNC4)c12`: the IC50 in assay [1] is > 100 µM; in assay [2], > 99.5 µM.
Consider `NCc1cccc(NC(=O)c2cc(C3CC3)n3nc(C(F)(F)F)cc3n2)c1`, for which the values for the IC50 in assay [1] and in assay [2] were > 100 µM and > 99.5 µM, respectively.
On the same counts, the results for `O=C(Nc1cccc2c1CNC2)c1cc(Cl)cc2[nH]ncc12` are > 100 µM and > 99.5 µM.
For `COc1c(C(N)=O)cc(Cl)cc1S(=O)(=O)Nc1cccc(-c2nnn[nH]2)c1`, the IC50 in assay [1] is > 100 µM; in assay [2], > 99.5 µM.
On the same counts, the results for `Cc1nc(C2CC2)[nH]c1C(=O)Nc1cc(CCCN)ccn1` are > 100 µM and > 99.5 µM.
On to `N#Cc1cc(CN)cc(NC(=O)c2cc(Cl)cc(NC(=O)OCc3ccccc3)c2)c1`, for which the IC50 is > 100 µM in assay [1] and > 99.5 µM in assay [2].
Taken in the same sequence, the figures for `NCc1ccc2c(c1)[C@H](N1CCCC1=O)C[C@H](c1cc(Cl)cc(NC(=O)OCc3ccccc3)c1)N2` were 75.5 µM and > 99.5 µM.
Taken in the same sequence, the figures for `O=C1OCc2ccc(NC(=O)[C@H]3CNCc4[nH]ncc43)cc21` were > 100 µM and > 99.5 µM.
On to `NCc1nc2cc(Cl)ccc2n1Cc1ccc(-c2nn[nH]n2)cc1`, for which the results for the IC50 in assay [1] and in assay [2] were > 100 µM and > 99.5 µM, respectively.
On the same counts, the results for `O=C(Nc1ccc2c(c1)CNC2)c1nccc2[nH]ncc12` are > 100 µM and > 99.5 µM.
Take `O=C1NC[C@H](c2ccc(OCc3ccccc3)c(Br)c2)N1C(=O)OCc1ccccc1`: the values for the IC50 in assay [1] and in assay [2] were > 100 µM and > 99.5 µM, respectively.
Taken in the same sequence, the figures for `O=C(Nc1ccc2c(c1)CNC2)[C@H]1C[C@@H]1c1ccccc1` were > 100 µM and > 99.5 µM.
On the same counts, the results for `Cc1cc(CN)cc(NC(=O)c2cc(Cl)cc(NC(=O)OCc3ccccc3)c2)c1` are > 100 µM and 42.2 µM.
On the same counts, the results for `FC(F)(F)Oc1cc(Cl)cc2c(Cc3ccc(-c4nnn[nH]4)cc3)c[nH]c12` are 7.84 µM and 12.6 µM.
As for `O=C(Nc1ccc2c(c1)COC2)c1cc(Cl)cc2[nH]ncc12`, the values for the IC50 in assay [1] and in assay [2] were > 100 µM and > 99.5 µM, respectively.
As for `O=C(Nc1cc(Cl)cc(C(=O)Nc2cc(-c3nnn[nH]3)ccc2F)c1)OCc1ccccc1`, the IC50 in assay [1] was 11 µM and 7.48 µM; in assay [2], 15.6 µM.
With `O=C(Nc1cc(-c2cccnc2)ccn1)c1csc(C[C@H]2CCCNC2)n1`, the IC50 is > 100 µM in assay [1] and > 99.5 µM in assay [2].
On the same counts, the results for `O=C(Nc1cc(Cl)cc(C(=O)Nc2ccc([C@H]3CCCNC3)cc2)c1)OCc1ccccc1` are > 100 µM and 68.4 µM.
On the same counts, the results for `O=C(Nc1ccc2nc[nH]c2c1)c1cc(F)cc2[nH]ncc12` are > 100 µM and > 99.5 µM.
Turning to `CCCNC(=O)[C@H](Nc1cccc(-c2nn[nH]n2)c1)c1cc(Cl)cc(NC(=O)OCc2ccccc2)c1`, the IC50 in assay [1] is 9.41 µM and 9.81 µM; in assay [2] it was 17.3 µM.
As to `Cc1c(C(=O)Nc2cc(C(=O)N3CCOC[C@H](O)C3)ccn2)cc(C2CC2)n1C`, the IC50 in assay [1] was > 100 µM; in assay [2] it was > 99.5 µM.
On the same counts, the results for `C=CC[C@H]1NCc2cc(N[C@H](C(=O)NC(C)C)c3cccc4[nH]ncc34)ccc21` are > 100 µM and > 99.5 µM.
On the same counts, the results for `Cc1ncc(C(=O)Nc2cccc(CN)c2)cc1NC(=O)OCc1ccccc1` are > 100 µM and > 99.5 µM.
On the same counts, the results for `NCCc1cccc(-c2cccc([C@@H](NC(=O)OCc3ccccc3)C(=O)Nc3cccc(CN)c3)c2)c1` are > 100 µM and 33.6 µM.
In the case of `NCc1cccc(NC(=O)c2cc(C3CC3)nc3c(Cl)cnn23)c1`, the IC50 was > 100 µM in assay [1] and > 99.5 µM in assay [2].
For the compound `O=S(=O)(Cc1nnc(Cc2ccccc2)o1)c1ccc(O)cc1`, the concentration for half-maximal inhibition (IC50) in assay [1] is > 100 µM; in assay [2] it was > 99.5 µM.
For the compound `O=C(Nc1cc(Cl)cc(C(=O)N2CCC[C@H]2C(=O)O)c1)OCc1ccccc1`, the IC50 in assay [1] is > 100 µM; in assay [2] it was > 99.5 µM.
Take `Cc1ccc(S(=O)(=O)CCCn2ccc3sccc3c2=O)cc1`: the concentration for half-maximal inhibition (IC50) in assay [1] was > 100 µM; in assay [2], > 99.5 µM.
With `Cn1cc2cc(C#N)cc(-c3ccc4[nH]c(C(=O)O)cc4c3)c2n1`, the results for the IC50 in assay [1] and in assay [2] were > 100 µM and > 99.5 µM, respectively.
On the same counts, the results for `C=CC[C@H]1NCc2cc(NC(=O)c3cc(F)cc4[nH]ncc34)ccc21` are 39 µM and 72.9 µM.
Consider `O=C(Nc1ccc2c(c1)CNC2)c1cc(Cl)cc2[nH]c(-c3cc(C4CC4)[nH]n3)nc12`, for which the IC50 was > 100 µM in assay [1]; 7.32 µM and 5.15 µM in assay [2].
Turning to `CN(C)Cc1cccc(NC(=O)[C@H](NC(=O)OCc2ccccc2)c2ccc(OCc3ccccc3)cc2)c1`, the IC50 in assay [1] is > 100 µM; in assay [2], > 99.5 µM.
On the same counts, the results for `O=C(Nc1ccc2c(c1)CNC2)N1CCC[C@H]1c1cc(C(F)(F)F)no1` are > 100 µM and > 99.5 µM.
Taken in the same sequence, the figures for `Clc1cc(/C=C/c2cccc(-c3nn[nH]n3)c2)c2cn[nH]c2c1` were > 100 µM and > 99.5 µM.
On the same counts, the results for `O=C(Nc1cc([C@H]2CCOC2)ccn1)c1cc(Cl)cc2[nH]ncc12` are > 100 µM and > 99.5 µM.
Consider `O=C(Nc1cc(Cl)cc([C@H](Nc2cccc(-c3nn[nH]n3)c2)C(=O)NC2CCOCC2)c1)OCc1ccccc1`, for which the IC50 in assay [1] is 13.2 µM and 19.9 µM; in assay [2], 40.6 µM.
Regarding `CCOC(=O)c1ncoc1CNC(=O)[C@H](Nc1ccc2c(c1)CNC2)c1cc(Cl)cc(C2CC2)c1`, the IC50 is > 100 µM in assay [1] and > 99.5 µM in assay [2].
Taken in the same sequence, the figures for `O=C(Nc1cc(Cl)cc(C(=O)Nc2cccc(CN3CCCC3=O)c2)c1)OCc1ccccc1` were > 100 µM and > 99.5 µM.
On the same counts, the results for `O=C(Nc1ccc2c(c1)CNC2)c1cccc2ncccc12` are > 100 µM and > 99.5 µM.
Taken in the same sequence, the figures for `N[C@H]1Cc2ccc(NC(=O)c3cc(Cl)cc(NC(=O)OCc4ccccc4)c3)cc2C1` were 64.2 µM and 33.3 µM.
In the case of `NCc1cccc(NC(=O)[C@H]2COCC3(CCC3)O2)c1`, the IC50 in assay [1] was > 100 µM; in assay [2], > 99.5 µM.
Take `C[C@@H](N)c1cccc(NC(=O)[C@H]2[C@H]3CCCCC[C@H]3[C@H]2NC(=O)OCc2ccccc2)c1`: the IC50 in assay [1] is 29 µM; in assay [2] it was 13.5 µM and 13.8 µM.
Turning to `CNCc1cccc(NC(=O)c2cc(Cl)cc(NC(=O)OCc3ccccc3)c2)c1`, the results for the IC50 in assay [1] and in assay [2] were > 100 µM and 80.5 µM, respectively.
Turning to `C[C@H]1Oc2ccc(NC(=O)c3cc(Cl)cc(NC(=O)OCc4ccccc4)c3)cc2NC1=O`, the IC50 in assay [1] was > 100 µM; in assay [2], > 99.5 µM.
On to `O=C1Cc2cc(C(=O)Nc3ccc4c(c3)CNC4)c(Cl)cc2N1`, for which the IC50 is 35.9 µM and 22.7 µM in assay [1]; > 99.5 µM in assay [2].
`N#C[C@H](Nc1ccc2c(c1)CNC2)c1cccc2ncccc12`: the IC50 in assay [1] is > 100 µM; in assay [2] it was > 99.5 µM.
Taken in the same sequence, the figures for `Cn1nc(C(=O)Nc2cc(-c3cccnc3)ccn2)cc1C1CC1` were > 100 µM and > 99.5 µM.
Turning to `O=c1[nH]c2cc(Cl)ccc2n1Cc1ccc(-c2nn[nH]n2)cc1`, the IC50 in assay [1] is > 100 µM; in assay [2], > 99.5 µM.
On the same counts, the results for `CCCNC(=O)[C@H](Nc1ccc2c(c1)CNC2)c1cc(Cl)cc2[nH]ncc12` are > 100 µM and > 99.5 µM.
Taken in the same sequence, the figures for `NCc1csc2cc(C(=O)Nc3cc([C@H]4CCOC4)ccn3)ccc12` were > 100 µM and > 99.5 µM.
On the same counts, the results for `NCc1cccc(NC(=O)c2cc(Cl)cc(-n3cccc3)c2)c1` are > 100 µM and > 99.5 µM.
Turning to `O=C(Nc1cc(Cl)cc([C@H]2Nc3ccc(-c4nn[nH]n4)cc3[C@H]3OCCC[C@@H]23)c1)OCc1ccccc1`, the IC50 in assay [1] is > 100 µM; in assay [2], > 99.5 µM.
Take `O=C(Nc1ccc2c(c1)CNC2)c1cc(F)cc(-c2cccnc2)c1`: the IC50 in assay [1] was > 100 µM; in assay [2], > 99.5 µM.
Taken in the same sequence, the figures for `CC(=O)Nc1cc(Cl)cc(C(=O)Nc2cccc(CN)c2)c1` were > 100 µM and > 99.5 µM.
Taken in the same sequence, the figures for `O=C(Nc1ccc2c(c1)CNC2)c1cc(Cl)cc(-n2cccc2)c1` were > 100 µM and > 99.5 µM.
Turning to `Cc1c(C(=O)Nc2cc(-c3cccnc3)ccn2)cc(C2CCCCC2)n1C`, the IC50 in assay [1] was > 100 µM; in assay [2], > 99.5 µM.
Taken in the same sequence, the figures for `O=C(Nc1ccc2c(c1)CNC2)c1cc(Cl)cc2ccncc12` were > 100 µM and > 99.5 µM.
On the same counts, the results for `CNC(=O)C[C@H](Nc1ccccn1)c1cc(Cl)cc(Br)c1` are > 100 µM and > 99.5 µM.
For `CC(=O)Nc1cccc(C(=O)Nc2ccc3c(c2)CNC3)c1`, the results for the IC50 in assay [1] and in assay [2] were > 100 µM and > 99.5 µM, respectively.
On the same counts, the results for `C=CC[C@H](Nc1cccc(C(=O)O)c1)c1cc(Cl)cc2[nH]ncc12` are > 100 µM and > 99.5 µM.
In the case of `Nc1cccc(NC(=O)c2cc(Cl)cc(NC(=O)OCc3ccccc3)c2)n1`, the IC50 was > 100 µM in assay [1] and > 99.5 µM in assay [2].
In the case of `O=C1COc2c(cccc2C(=O)Nc2ccc3c(c2)CNC3)N1`, the IC50 was > 100 µM in assay [1] and > 99.5 µM in assay [2].
On the same counts, the results for `C[C@@H]1CCC[C@H](C(=O)Nc2cccc(CN)c2)O1` are > 100 µM and > 99.5 µM.
Taken in the same sequence, the figures for `CN1CC=C(c2cccc([C@@H](NC(=O)OCc3ccccc3)C(=O)Nc3cccc(CN)c3)c2)CC1` were > 100 µM and > 99.5 µM.
